Reference: ChEMBL document CHEMBL3576837, “Targeted natural products discovery from marine cyanobacteria using combined phylogenetic and mass spectrometric evaluation” (2015)

Columns and labels:
Assay type in all cases: functional
HT-29 [1] = experiment: Cytotoxicity against human HT-29 cells assessed as cell viability at 0.32 nM incubated for 48 hrs by MTT assay; conditions: HT-29, 48 h, read-out: Activity
HT-29 [2] = experiment: Cytotoxicity against human HT-29 cells assessed as cell viability at 0.32 nM incubated for 48 hrs in presence of 4 nM largazole by MTT assay
HT-29 [3] = experiment: Cytotoxicity against human HT-29 cells assessed as cell viability at 4 nM incubated for 48 hrs by MTT assay; conditions: HT-29, 48 h, read-out: Activity
HT-29 [4] = experiment: Cytotoxicity against human HT-29 cells assessed as cell viability at 4 nM incubated for 48 hrs in presence of 0.32 nM dolastatin 10 by MTT assay

Row | Structure (SMILES) | viability at 0.00032 µM (HT-29 [1]) | Activity (HT-29 [2]) | viability at 0.004 µM (HT-29 [3]) | Activity (HT-29 [4])
1 | CC[C@H](C)[C@@H]([C@@H](CC(=O)N1CCC[C@H]1[C@H](OC)[C@@H](C)C(=O)N[C@@H](Cc1ccccc1)c1nccs1)OC)N(C)C(=O)[C@@H](NC(=O)[C@H](C(C)C)N(C)C)C(C)C [DOLASTATIN-10] | 80% | 55% |  | 
2 | CCCCCCCC(=O)SCC/C=C/[C@@H]1CC(=O)NCc2nc(cs2)C2=N[C@@](C)(CS2)C(=O)N[C@@H](C(C)C)C(=O)O1 [LARGAZOLE] |  |  | 80% | 55%
